Active and inactive are the calls of the source. No rule for the calls is given here.
Target: Caspase-3 (Homo sapiens) + Caspase-9 (Homo sapiens) (UniProt P42574+P55211)
Test: caspase-9/caspase-3 cascade inhibitors, dose response, selectivity assay, biochemical, fluorescence, uHTS hits (AID 588574)
Details: LZ-caspase-9/caspase-3 coupled fluorogenic substrate

Caspase-3 (Homo sapiens) + Caspase-9 (Homo sapiens), sequence (P42574 whole entry, looked up): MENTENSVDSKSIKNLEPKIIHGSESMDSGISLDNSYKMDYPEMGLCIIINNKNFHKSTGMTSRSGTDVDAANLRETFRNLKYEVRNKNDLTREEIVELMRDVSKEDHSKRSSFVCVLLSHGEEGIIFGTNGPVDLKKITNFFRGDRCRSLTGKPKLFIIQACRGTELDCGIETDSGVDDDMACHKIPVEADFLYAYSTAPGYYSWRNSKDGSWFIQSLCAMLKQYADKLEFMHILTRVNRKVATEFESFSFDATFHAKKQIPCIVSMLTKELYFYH
Caspase-3 (Homo sapiens) + Caspase-9 (Homo sapiens), sequence (P55211 whole entry, looked up): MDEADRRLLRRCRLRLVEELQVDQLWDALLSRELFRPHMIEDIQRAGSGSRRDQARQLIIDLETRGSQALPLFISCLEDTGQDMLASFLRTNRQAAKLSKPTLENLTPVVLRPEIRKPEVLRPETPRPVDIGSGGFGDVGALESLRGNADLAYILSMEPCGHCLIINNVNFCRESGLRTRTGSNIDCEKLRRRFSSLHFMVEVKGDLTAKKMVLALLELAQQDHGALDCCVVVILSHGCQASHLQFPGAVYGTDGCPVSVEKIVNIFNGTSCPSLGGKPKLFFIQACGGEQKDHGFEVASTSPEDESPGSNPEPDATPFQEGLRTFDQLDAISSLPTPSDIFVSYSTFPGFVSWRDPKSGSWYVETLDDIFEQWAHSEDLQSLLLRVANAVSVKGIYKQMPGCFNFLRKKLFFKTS

Row | SMILES | IC50
1 | COc1ccc(/C=N/Nc2cc(N(C)C)nc(N(C)C)n2)cc1 | 1.16 µM
2 | CCCc1[nH]nc2c1C(c1ccc(OC)c(CSC3=NCCS3)c1)C(C#N)=C(N)O2 (stereo not drawn) | 14.3 µM
3 | O=[N+]([O-])c1ccc(N/N=C/c2ccc(O)c(O)c2O)c(S(=O)(=O)N2CCOCC2)c1 | 20.4 µM
4 | O/C=c1\ccc2cccc3nc(C(F)(F)F)nc1c23 | 11.8 µM
5 | Cc1[nH]n(-c2ccccc2)c(=O)c1/C=N/Nc1nncc(-c2ccccc2)n1 | 2.23 µM
6 | Oc1ccccc1/C=N/Nc1cc(N2CCCC2)nc(N2CCCC2)n1 | 2.51 µM
7 | Oc1ccc(/C=N/Nc2cc(N3CCCC3)nc(N3CCCC3)n2)cc1O | 10.7 µM
8 | CC(C)c1ccc(/C=N/Nc2cc(N3CCOCC3)nc(N3CCOCC3)n2)cc1 | > 100 µM (inactive)
9 | CCCCCCc1cc2cc(-c3nnc(-c4ccccc4)o3)c(=O)oc2cc1O | 6.31 µM
10 | Oc1ccc(/C=N/Nc2cc(N3CCCC3)nc(N3CCCC3)n2)cc1 | 5.44 µM
11 | COc1ccc(/C=N/Nc2cc(N3CCCC3)nc(N3CCCC3)n2)cc1 | 3.91 µM
12 | CC1=NN(c2ccc(C(F)(F)F)cn2)C(=O)C1 | 8.21 µM
13 | CCN(CC)CCOC(=O)c1ccc(N/C=C(/C#N)c2nc(-c3ccc(OC)c(OC)c3)cs2)cc1 | > 100 µM (inactive)
14 | Oc1cccc(/C=N/Nc2cc(N3CCCC3)nc(N3CCCC3)n2)c1 | 12.5 µM
15 | O=C(N/N=C/c1cc(Cl)cc([N+](=O)[O-])c1O)NC12CC3CC(CC(C3)C1)C2 | 9.15 µM
16 | CCN(CC)CCOC(=O)c1ccc(N/C=C(/C#N)c2nc(-c3ccc4c(c3)OCO4)cs2)cc1 | > 100 µM (inactive)
17 | CCCCCCc1cc2cc(-c3nnc(-c4ccccc4OC)o3)c(=O)oc2cc1O | 14.7 µM
18 | O=c1cc(N/N=C/c2ccccc2)[nH]c(=O)[nH]1 | 19.4 µM
19 | CN(C)c1cc(N/N=C/c2ccccc2C(F)(F)F)nc(N(C)C)n1 | 6.79 µM
20 | CN(C)c1cc(N/N=C\c2ccccc2)nc(N(C)C)n1 | 3.53 µM
21 | Oc1ccc(/C=N\Nc2cc(N3CCOCC3)nc(N3CCOCC3)n2)c(O)c1 | 57.9 µM
22 | CC1(C)C=C2C(=NN(c3ccccc3)C(N)=C2C#N)CO1 | 4.31 µM
23 | CCOC(=O)C1=C(c2ccccc2)NC(N)=NC1c1ccc(OCc2ccc(Cl)cc2)c(OC)c1 (stereo not drawn) | 15.8 µM

Now from value to molecule:

Row | IC50 | SMILES
24 | 8.49 µM | CC(=O)N(Cc1ccc(F)cc1)C1=C(NCCc2ccccc2)C(=O)c2ccccc2C1=O
25 | 10.2 µM | O=C1C(O)=C(O)C(=O)c2ccccc21
26 | 6.91 µM | Cc1ccc(NC2=C(NCCO)C(=O)c3ccccc3C2=O)cc1
27 | 23.3 µM | O=C1C(Cl)=C(NCCN2CCOCC2)C(=O)c2ccccc21
28 | 46.1 µM | CC1=NN(c2ccc(Cl)cc2)C(=O)C1C(c1ccccc1O)c1c(C)[nH]n(-c2ccc(Cl)cc2)c1=O (stereo not drawn)
29 | 24.6 µM | CCC(=O)N(C1=C(NC)C(=O)c2ccccc2C1=O)C(C)C
30 | 5.3 µM | O=C1C(C2=C(O)c3ccccc3C2=O)=Nc2ccccc21
31 | 10.6 µM | COc1ccc(NC2=C(NCCO)C(=O)c3ccccc3C2=O)cc1
32 | 8.43 µM | O=C1C(Cl)=C(NCc2cccnc2)C(=O)c2ccccc21
33 | 8.5 µM | CSc1ccc(C=NNc2ccc(S(=O)(=O)Nc3ccccc3C(=O)O)cc2[N+](=O)[O-])cc1
34 | 6.08 µM | O=C1C(Cl)=C(NCCN2CCCCC2)C(=O)c2ccccc21
35 | 4.43 µM | CC(C)CCC(C)N=Cc1c(O)n(Cc2ccccc2)c(=O)c2ccccc12 (stereo not drawn)
36 | 16 µM | CCOC(=O)C1=C(c2ccccc2)NC(N)=NC1c1ccc(OCc2ccc(C(=O)OC)cc2)cc1 (stereo not drawn)
37 | 16.1 µM | CCN(CC)CCCNC1=C(Cl)C(=O)c2ccccc2C1=O
38 | > 100 µM (inactive) | CCN(CC)CCOC(=O)c1ccc(N/C=C(/C#N)c2nc(-c3cc4ccccc4oc3=O)cs2)cc1
